Laboratory results as given in ChEMBL document CHEMBL1817621, “SAR studies of acidic dual γ-secretase/PPARγ modulators” (Bioorg Med Chem, 2011).
Active and inactive are the calls of the source. The rule behind the calls is not given here.

Biological target: T1, Peroxisome proliferator-activated receptor alpha (Homo sapiens) (UniProt Q07869)
T1 sequence (whole entry): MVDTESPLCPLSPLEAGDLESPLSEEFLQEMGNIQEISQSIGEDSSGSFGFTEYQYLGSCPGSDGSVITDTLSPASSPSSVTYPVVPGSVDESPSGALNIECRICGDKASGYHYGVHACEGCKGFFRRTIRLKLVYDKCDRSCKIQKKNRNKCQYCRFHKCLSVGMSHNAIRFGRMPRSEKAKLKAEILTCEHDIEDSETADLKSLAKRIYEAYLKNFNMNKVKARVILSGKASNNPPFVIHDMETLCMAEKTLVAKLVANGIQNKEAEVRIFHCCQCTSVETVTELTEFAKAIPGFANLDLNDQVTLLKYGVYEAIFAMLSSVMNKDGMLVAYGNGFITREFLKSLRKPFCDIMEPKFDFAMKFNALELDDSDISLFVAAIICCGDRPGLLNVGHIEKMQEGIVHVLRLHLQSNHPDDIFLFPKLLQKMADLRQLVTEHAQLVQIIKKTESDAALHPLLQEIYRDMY
Test: Modulation of human PPARalpha-LBD expressed in african green monkey COS7 cells co-transfected with Gal4 assessed as activation of transactivation activity at 10 uM by luciferase assay
Format: cell-based
Settings: COS-7
With `CCCC/C(=C\c1cc(OCCc2ccc(C(F)(F)F)cc2)ccc1OCCc1ccc(C(F)(F)F)cc1)C(=O)O` the Activity was “inactive”. In the case of `CCCCC(Cc1cc(OCCc2ccccc2)ccc1OCCc1ccccc1)C(=O)O` (configuration not stated), the Activity is reported as “inactive”. With `CCCC/C(=C\c1cc(OCCC2CCCCC2)ccc1OCc1ccc(C(F)(F)F)cc1)C(=O)O` the Activity was “inactive”. For `CCCC/C(=C\c1cc(OCCc2ccccc2)cc(OCCc2ccccc2)c1)C(=O)O`, the Activity was “inactive”.

Biological target: T2, Peroxisome proliferator-activated receptor delta (Homo sapiens) (UniProt Q03181)
T2 sequence (whole entry): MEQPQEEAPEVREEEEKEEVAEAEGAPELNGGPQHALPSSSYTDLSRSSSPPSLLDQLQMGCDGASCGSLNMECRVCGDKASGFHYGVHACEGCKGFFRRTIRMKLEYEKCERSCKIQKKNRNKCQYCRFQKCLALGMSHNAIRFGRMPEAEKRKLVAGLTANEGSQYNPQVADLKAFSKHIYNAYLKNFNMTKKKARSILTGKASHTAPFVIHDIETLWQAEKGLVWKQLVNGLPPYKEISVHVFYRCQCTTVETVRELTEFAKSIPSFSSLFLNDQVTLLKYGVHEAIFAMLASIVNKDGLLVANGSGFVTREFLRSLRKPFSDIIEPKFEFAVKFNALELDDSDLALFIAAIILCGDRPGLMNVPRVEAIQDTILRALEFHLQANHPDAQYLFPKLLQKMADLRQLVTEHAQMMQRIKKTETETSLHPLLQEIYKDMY
Test: Modulation of human PPARdelta-LBD expressed in african green monkey COS7 cells co-transfected with Gal4 assessed as activation of transactivation activity at 10 uM by luciferase assay
Format: cell-based
Settings: COS-7
With `CCCC/C(=C\c1cc(OCCc2ccc(C(F)(F)F)cc2)ccc1OCCc1ccc(C(F)(F)F)cc1)C(=O)O` the Activity was “inactive”. With `CCCCC(Cc1cc(OCCc2ccccc2)ccc1OCCc1ccccc1)C(=O)O` (configuration not stated) the Activity was “inactive”. In the case of `CCCC/C(=C\c1cc(OCCC2CCCCC2)ccc1OCc1ccc(C(F)(F)F)cc1)C(=O)O`, the Activity is reported as “inactive”. With `CCCC/C(=C\c1cc(OCCc2ccccc2)cc(OCCc2ccccc2)c1)C(=O)O` the Activity was “inactive”.

Biological target: T3, Peroxisome proliferator-activated receptor gamma (Homo sapiens) (UniProt P37231)
T3 sequence (whole entry): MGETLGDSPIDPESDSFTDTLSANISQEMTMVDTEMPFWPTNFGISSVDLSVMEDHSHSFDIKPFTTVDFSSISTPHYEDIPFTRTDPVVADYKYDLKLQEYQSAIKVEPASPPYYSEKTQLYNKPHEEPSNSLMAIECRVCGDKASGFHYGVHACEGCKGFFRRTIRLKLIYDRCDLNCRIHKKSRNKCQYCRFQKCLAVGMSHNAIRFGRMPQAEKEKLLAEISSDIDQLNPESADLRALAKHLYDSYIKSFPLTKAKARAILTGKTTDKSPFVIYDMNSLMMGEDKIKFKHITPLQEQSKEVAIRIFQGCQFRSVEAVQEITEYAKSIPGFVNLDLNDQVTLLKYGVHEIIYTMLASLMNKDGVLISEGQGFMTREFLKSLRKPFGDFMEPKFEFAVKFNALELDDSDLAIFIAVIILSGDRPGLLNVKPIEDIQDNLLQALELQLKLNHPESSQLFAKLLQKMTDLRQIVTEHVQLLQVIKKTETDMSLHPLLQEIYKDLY
Test: Modulation of human PPARgamma-LBD expressed in african green monkey COS7 cells co-transfected with Gal4 assessed as activation of transactivation activity at 10 uM by luciferase assay
Format: cell-based
Settings: COS-7
In the case of `CCCC/C(=C\c1cc(OCCC2CCCCC2)ccc1OCc1ccc(C(F)(F)F)cc1)C(=O)O`, the Activity is reported as 27%.

Biological target: T4, Peroxisome proliferator-activated receptor gamma (Homo sapiens, UniProt P37231)
T4 sequence (P37231 whole entry): T3 sequence (whole entry)
Test: Modulation of human PPARgamma-LBD expressed in african green monkey COS7 cells co-transfected with Gal4 assessed as activation of transactivation activity by luciferase assay
Format: cell-based, COS-7
Settings: not given
Work on `CCCC/C(=C\c1cc(OCCc2ccc(C(F)(F)F)cc2)ccc1OCCc1ccc(C(F)(F)F)cc1)C(=O)O` yielded an EC50 of 7.2 µM. In the case of `CCCCC(Cc1cc(OCCc2ccccc2)ccc1OCCc1ccccc1)C(=O)O` (configuration not stated), the EC50 is reported as 10.8 µM. For `CCCC/C(=C\c1cc(OCCc2ccccc2)cc(OCCc2ccccc2)c1)C(=O)O`, the EC50 was 7.8 µM.

Biological target: T3, Peroxisome proliferator-activated receptor gamma (Homo sapiens)
Test: Modulation of human PPARgamma-LBD expressed in african green monkey COS7 cells co-transfected with Gal4 assessed as activation of transactivation activity by luciferase assay relative to pioglitazone
Format: cell-based
Settings: COS-7
In the case of `CCCC/C(=C\c1cc(OCCc2ccc(C(F)(F)F)cc2)ccc1OCCc1ccc(C(F)(F)F)cc1)C(=O)O`, the Emax is reported as 86%. In the case of `CCCCC(Cc1cc(OCCc2ccccc2)ccc1OCCc1ccccc1)C(=O)O` (configuration not stated), the Emax is reported as 97%. `CCCC/C(=C\c1cc(OCCc2ccccc2)cc(OCCc2ccccc2)c1)C(=O)O` gave an Emax of 95%.

Tested on: not listed separately
Test: Modulation of gamma-secretase expressed in CHO cells co-expressing human APP and wild type human presenilin-1 assessed as inhibition of amyloid beta42 production by ELISA
Format: cell-based
Settings: not given
Work on `CCCC/C(=C\c1cc(OCCc2ccc(C(F)(F)F)cc2)ccc1OCCc1ccc(C(F)(F)F)cc1)C(=O)O` yielded an IC50 of 2.4 µM. `CCCCC(Cc1cc(OCCc2ccccc2)ccc1OCCc1ccccc1)C(=O)O` (configuration not stated) gave an IC50 of 19.1 µM. Work on `CCCC/C(=C\c1cc(OCCC2CCCCC2)ccc1OCc1ccc(C(F)(F)F)cc1)C(=O)O` yielded an IC50 of 2.7 µM. For `CCCC/C(=C\c1cc(OCCc2ccccc2)cc(OCCc2ccccc2)c1)C(=O)O`, the IC50 was 37.9 µM.

Tested on: not listed separately
Test: Modulation of gamma-secretase expressed in CHO cells co-expressing human APP and wild type human presenilin-1 assessed as increase of amyloid beta38 production by ELISA
Format: cell-based
Settings: not given
Work on `CCCC/C(=C\c1cc(OCCc2ccc(C(F)(F)F)cc2)ccc1OCCc1ccc(C(F)(F)F)cc1)C(=O)O` yielded an EC50 of 1.6 µM. `CCCCC(Cc1cc(OCCc2ccccc2)ccc1OCCc1ccccc1)C(=O)O` (configuration not stated) showed an EC50 of 14.5 µM. For `CCCC/C(=C\c1cc(OCCC2CCCCC2)ccc1OCc1ccc(C(F)(F)F)cc1)C(=O)O`, the EC50 was 2.5 µM. Compound `CCCC/C(=C\c1cc(OCCc2ccccc2)cc(OCCc2ccccc2)c1)C(=O)O` has an EC50 of 27.3 µM.

Biological target: T5, Prostaglandin G/H synthase 1 (Ovis aries) (UniProt P05979)
T5 sequence (whole entry): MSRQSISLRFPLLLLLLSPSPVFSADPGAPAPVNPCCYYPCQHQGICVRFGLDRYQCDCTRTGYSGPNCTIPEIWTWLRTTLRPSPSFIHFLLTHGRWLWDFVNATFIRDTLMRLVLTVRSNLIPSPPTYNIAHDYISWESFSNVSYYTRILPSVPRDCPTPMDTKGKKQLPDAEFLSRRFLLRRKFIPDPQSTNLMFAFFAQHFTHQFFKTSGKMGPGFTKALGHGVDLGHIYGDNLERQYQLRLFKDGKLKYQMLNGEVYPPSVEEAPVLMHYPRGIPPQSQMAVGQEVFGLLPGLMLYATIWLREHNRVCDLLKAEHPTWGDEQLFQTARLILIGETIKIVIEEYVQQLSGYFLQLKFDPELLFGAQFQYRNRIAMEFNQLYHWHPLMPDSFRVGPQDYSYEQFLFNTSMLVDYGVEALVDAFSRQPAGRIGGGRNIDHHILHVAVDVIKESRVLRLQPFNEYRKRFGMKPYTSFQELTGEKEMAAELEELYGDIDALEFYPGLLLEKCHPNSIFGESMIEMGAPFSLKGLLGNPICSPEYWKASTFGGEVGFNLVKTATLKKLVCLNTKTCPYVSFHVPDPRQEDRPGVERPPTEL
Test: Inhibition of ovine COX-1 assessed as residual activity by measuring formation of 12-HHT from arachidonic acid at 10 uM by HPLC analysis
Settings: not given
In the case of `CCCC/C(=C\c1cc(OCCc2ccc(C(F)(F)F)cc2)ccc1OCCc1ccc(C(F)(F)F)cc1)C(=O)O`, the Activity is reported as 81%. In the case of `CCCCC(Cc1cc(OCCc2ccccc2)ccc1OCCc1ccccc1)C(=O)O` (configuration not stated), the Activity is reported as 63.8%. With `CCCC/C(=C\c1cc(OCCC2CCCCC2)ccc1OCc1ccc(C(F)(F)F)cc1)C(=O)O` the Activity was 92.3%. `CCCC/C(=C\c1cc(OCCc2ccccc2)cc(OCCc2ccccc2)c1)C(=O)O` showed an Activity of 81.4%.

Biological target: T6, Prostaglandin G/H synthase 2 (Homo sapiens) (UniProt P35354)
T6 sequence (whole entry): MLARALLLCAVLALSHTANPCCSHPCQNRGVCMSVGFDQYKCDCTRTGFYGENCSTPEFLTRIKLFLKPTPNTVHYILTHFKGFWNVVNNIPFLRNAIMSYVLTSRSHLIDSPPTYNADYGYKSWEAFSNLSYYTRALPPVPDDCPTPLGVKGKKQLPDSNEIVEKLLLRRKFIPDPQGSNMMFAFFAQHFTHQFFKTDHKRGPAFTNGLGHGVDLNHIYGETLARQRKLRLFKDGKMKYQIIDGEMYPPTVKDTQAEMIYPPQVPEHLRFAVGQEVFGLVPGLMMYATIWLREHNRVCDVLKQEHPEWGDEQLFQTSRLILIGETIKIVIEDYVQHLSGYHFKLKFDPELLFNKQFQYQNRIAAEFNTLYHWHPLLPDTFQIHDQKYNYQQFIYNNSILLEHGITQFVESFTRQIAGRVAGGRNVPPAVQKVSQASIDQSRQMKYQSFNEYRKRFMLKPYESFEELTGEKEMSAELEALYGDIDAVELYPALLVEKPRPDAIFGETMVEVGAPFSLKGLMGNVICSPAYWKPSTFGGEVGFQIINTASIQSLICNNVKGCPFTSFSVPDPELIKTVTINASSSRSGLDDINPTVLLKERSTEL
Test: Inhibition of human recombinant COX-2 assessed as residual activity by measuring formation of 12-HHT from arachidonic acid at 10 uM by HPLC analysis
Settings: not given
Work on `CCCC/C(=C\c1cc(OCCc2ccc(C(F)(F)F)cc2)ccc1OCCc1ccc(C(F)(F)F)cc1)C(=O)O` yielded an Activity of 102%. In the case of `CCCCC(Cc1cc(OCCc2ccccc2)ccc1OCCc1ccccc1)C(=O)O` (configuration not stated), the Activity is reported as 66.5%. With `CCCC/C(=C\c1cc(OCCC2CCCCC2)ccc1OCc1ccc(C(F)(F)F)cc1)C(=O)O` the Activity was 106%. Compound `CCCC/C(=C\c1cc(OCCc2ccccc2)cc(OCCc2ccccc2)c1)C(=O)O` has an Activity of 81.4%.

Tested on: CHO
Test: Inhibition of gamma-secretase-mediated notch signaling expressed in CHO cells transfected with Gal4-DNA-binding/VP16 transactivation domain assessed as reduction of reporter activity up to 30 uM by luciferase assay
Format: cell-based
Settings: not given
In the case of `CCCC/C(=C\c1cc(OCCc2ccc(C(F)(F)F)cc2)ccc1OCCc1ccc(C(F)(F)F)cc1)C(=O)O`, the inhibition is reported as “inactive”.

Tested on: not listed separately
Test: Selectivity ratio of inhibition of gamma-secretase-mediated notch signaling to modulation of gamma-secretase
Settings: not given
`CCCC/C(=C\c1cc(OCCc2ccc(C(F)(F)F)cc2)ccc1OCCc1ccc(C(F)(F)F)cc1)C(=O)O` gave a Ratio of 8.

Tested on: CHO
Test: Cytotoxicity against CHO cells expressing human APP and wild type human presenilin-1 assessed as reduction of cell viability up to 40 uM after 24 hrs by Alamar blue assay
Format: cell-based, Cricetulus griseus
Settings: chinese hamster
For `CCCC/C(=C\c1cc(OCCc2ccc(C(F)(F)F)cc2)ccc1OCCc1ccc(C(F)(F)F)cc1)C(=O)O`, the Activity was “Non-toxic”. With `CCCCC(Cc1cc(OCCc2ccccc2)ccc1OCCc1ccccc1)C(=O)O` (configuration not stated) the Activity was “Non-toxic”. For `CCCC/C(=C\c1cc(OCCC2CCCCC2)ccc1OCc1ccc(C(F)(F)F)cc1)C(=O)O`, the Activity was “Non-toxic”. In the case of `CCCC/C(=C\c1cc(OCCc2ccccc2)cc(OCCc2ccccc2)c1)C(=O)O`, the Activity is reported as “Non-toxic”.
